Data as given in patent US8470765B2, “Polypeptides and antibacterial or antiseptic use of same” (AnGes MG, Inc., priority 2009, dated 2013).
Values after ≈ are worked out from the molar mass of the structure shown. No end group written: not given here.

Key:
[1] = system: Staphylococcus aureus ATCC29213; experiment: ATP Assay (viability at 3 hours), Table 6; format: cell-based; conditions: 3 h, 5 μg/mL
Protocol: (§1) Bacteria (Escherichia coli ATCC 25922, Pseudomonas aeruginosa ATCC 27853, Staphylococcus aureus ATCC29213, and Staphylococcus epidermidis JCM 2414) were inoculated to Mueller-Hinton broth: MHB or LB medium, and cultured at a temperature and period suited for each strain. From the thus obtained colonies, each strain was inoculated to a fresh liquid medium and cultured for 16 to 20 hours. Then an aliquot having a volume (10 to 50 μL) appropriate to each strain was inoculated to a fresh liquid medium and cultured for 4 to 6 hours, followed by the measurement of the absorbance at 600 nm. After comparing the turbidity with McFarland #0.5, the resultant was diluted with a medium. Each strain was added to about 10^5 CFU/mL (final concentration).
(§2) Each of the peptide solutions to be tested was diluted with the medium to obtain a solution of 10 μg/mL. As positive controls, tobramycin (TOB), oxacillin (OX) and meropenem (MEPM) were used. By dilution with sterilized purified water to 1.0 mg/mL, positive control-containing media having concentrations of […], respectively for TOB; 0.5, 0.12 and 0.06 μg/mL, respectively, for OX; and 1.0, 0.25, 0.12, 0.06, 0.03 and 0.008 μg/mL respectively, for MEPM, were prepared. To a 96-well microtiter plate, 0.1 mL of the inoculation solution and 0.1 mL of the peptide- or positive control-containing medium having the respective concentration were added, and cultured at 37° C. for 3 hours. The well not containing the sample was used as a negative control. After the culturing, ATP was measured using BacTiter-Glo Microbial Cell Viability Assay kit of PROMEGA, and compared with that in the negative control to obtain a relative value which was defined as a viability. The antibacterial activity was evaluated based on the viability at 3 hours later using ATP as an index.
(§3) The medium used in this test for bacteria was Mueller-Hinton broth. Independent experiments were carried out twice for each strain.

[2] = system: Escherichia coli ATCC 25922; experiment: ATP Assay (viability at 3 hours), Table 6; format: cell-based; conditions: 3 h, 5 μg/mL
Protocol: as §1, §2, §3

[3] = system: Pseudomonas aeruginosa ATCC 27853; experiment: ATP Assay (viability at 3 hours), Table 6; format: cell-based; conditions: 3 h, 5 μg/mL
Protocol: as §1, §2, §3

[4] = system: Staphylococcus aureus ATCC29213; experiment: microbe, parasite or virus in culture; format: cell-based; conditions: Table 5; unit not given
Protocol: (§4) Bacteria (Escherichia coli ATCC 25922, Pseudomonas aeruginosa ATCC 27853, Staphylococcus aureus ATCC29213, Klebsiella pneumoniae JCM 1662, Enterobacter cloacae JCM 1232, Enterobacter aerogenes JCM 1235 and Staphylococcus epidermidis JCM 2414) were inoculated to Mueller-Hinton broth: MHB or LB medium, and cultured at a temperature and period suited for each strain. From the thus obtained colonies, each strain was inoculated to a fresh liquid medium and cultured for 16 to 20 hours. Then an aliquot having a volume (10 to 50 appropriate to each strain was inoculated to a fresh liquid medium and cultured for 4 to 6 hours, followed by the measurement of the absorbance at 600 nm. After comparing the turbidity with McFarland #0.5, the resultant was diluted with a medium. Each strain was added to about 10^5 CFU/mL (final concentration). Each of the peptide solutions to be tested was diluted with MHB to obtain a solution of 128 μg/mL. […] As controls, tobramycin (TOB: aminoglucoside antibiotic), oxacillin (OX:β-lactam antibiotic), meropenem (MEPM: carbapenem antibiotic) and ciprofloxacin (new quinolone antibiotic) were used. […] To a 96-well microtiter plate, 0.1 mL of the inoculation solution and 0.1 mL of the peptide- or positive control-containing medium having the respective concentration were added, and cultured at 37° C. for 16 to 24 hours (or a time period suited for the growth of the respective strain). The well not containing the sample was used as a negative control. After the culturing, the growth was visually observed, and the minimum concentration at which the growth was inhibited was defined as the minimum growth inhibition concentration (MIC). The medium used in this test for bacteria was Mueller-Hinton broth. Independent experiments were carried out twice or more for each strain.

[5] = system: Escherichia coli ATCC 25922; experiment: microbe, parasite or virus in culture; format: cell-based; conditions: Table 5; unit not given
Protocol: as §4

[6] = system: Staphylococcus epidermidis JCM 2414; experiment: microbe, parasite or virus in culture; format: cell-based; conditions: Table 5; unit not given
Protocol: as §4

[7] = system: Pseudomonas aeruginosa ATCC 27853; experiment: microbe, parasite or virus in culture; format: cell-based; conditions: Table 5; unit not given
Protocol: as §4

[8] = system: Candida krusei NBRC1395; conditions: Table 4; two tests, first/second value where not identical
[9] = system: Fusarium solani JCM11383; conditions: Table 4; two tests, first/second value where not identical
[10] = system: Trichophyton rubrum NBRC9185; conditions: Table 4; two tests, first/second value where not identical
[11] = system: Trichophyton mentagrophytes NBRC6124; conditions: Table 4; two tests, first/second value where not identical
[12] = system: Alternaria alternata JCM5800; conditions: Table 4; two tests, first/second value where not identical

RLKRLGERLKRKIQKLI-NH2 [SRP-35]
Staphylococcus aureus ATP (viability, relative value to negative control) [1]: 2.1
Escherichia coli ATP (viability, relative value to negative control) [2]: 3.6
Pseudomonas aeruginosa ATP (viability, relative value to negative control) [3]: 5.2
MIC Staphylococcus aureus [4]: 16-32
MIC Escherichia coli [5]: 8-16
MIC Staphylococcus epidermidis [6]: 8
MIC Pseudomonas aeruginosa [7]: 8-16

RLKRLGERLKRKIQKLIRL-NH2 [SRP-28]
Staphylococcus aureus ATP (viability, relative value to negative control) [1]: 5.2
Escherichia coli ATP (viability, relative value to negative control) [2]: 7.1
Pseudomonas aeruginosa ATP (viability, relative value to negative control) [3]: 1.4
MIC Staphylococcus aureus [4]: 16
MIC Escherichia coli [5]: 16
MIC Staphylococcus epidermidis [6]: 8-16
MIC Pseudomonas aeruginosa [7]: 4-8

KRLGERLKRKIQKLIRL-NH2 [SRP-30]
Staphylococcus aureus ATP (viability, relative value to negative control) [1]: 6.3
Escherichia coli ATP (viability, relative value to negative control) [2]: 19.9
Pseudomonas aeruginosa ATP (viability, relative value to negative control) [3]: 2.0
MIC Staphylococcus aureus [4]: 16-64
MIC Escherichia coli [5]: 64
MIC Staphylococcus epidermidis [6]: 8-16
MIC Pseudomonas aeruginosa [7]: 8-16

GRLKRLGERLKRKIQKLIRL-NH2 [SRP-27]
Staphylococcus aureus ATP (viability, relative value to negative control) [1]: 3.2
Escherichia coli ATP (viability, relative value to negative control) [2]: 5.6
Pseudomonas aeruginosa ATP (viability, relative value to negative control) [3]: 2.1
MIC Staphylococcus aureus [4]: 16
MIC Escherichia coli [5]: 16
MIC Staphylococcus epidermidis [6]: 8-16
MIC Pseudomonas aeruginosa [7]: 8-16

MGERLKRKIQKWIRW-NH2 [SRP-25]
Staphylococcus aureus ATP (viability, relative value to negative control) [1]: 10.9
Escherichia coli ATP (viability, relative value to negative control) [2]: 23.5
Pseudomonas aeruginosa ATP (viability, relative value to negative control) [3]: 15.4
MIC Staphylococcus aureus [4]: 16
MIC Escherichia coli [5]: 16
MIC Staphylococcus epidermidis [6]: 8-32
MIC Pseudomonas aeruginosa [7]: 16

GRLKRLGERLKRKIQKWIRW-NH2 [SRP-22]
Staphylococcus aureus ATP (viability, relative value to negative control) [1]: 5.0
Escherichia coli ATP (viability, relative value to negative control) [2]: 4.5
Pseudomonas aeruginosa ATP (viability, relative value to negative control) [3]: 1.4
MIC Staphylococcus aureus [4]: 8-16
MIC Escherichia coli [5]: 8-16
MIC Staphylococcus epidermidis [6]: 8
MIC Pseudomonas aeruginosa [7]: 8-16

RLGERLKRKIQKLIRL-NH2 [SRP-31]
Staphylococcus aureus ATP (viability, relative value to negative control) [1]: 19.7
Escherichia coli ATP (viability, relative value to negative control) [2]: 27.4
Pseudomonas aeruginosa ATP (viability, relative value to negative control) [3]: 9.7
MIC Staphylococcus aureus [4]: 32-64
MIC Escherichia coli [5]: 32-64
MIC Staphylococcus epidermidis [6]: 8-16
MIC Pseudomonas aeruginosa [7]: 16

RLKRLGERLKRKIQKLIR-NH2 [SRP-34]
Staphylococcus aureus ATP (viability, relative value to negative control) [1]: 2.6
Escherichia coli ATP (viability, relative value to negative control) [2]: 4.4
Pseudomonas aeruginosa ATP (viability, relative value to negative control) [3]: 2.8
MIC Staphylococcus aureus [4]: 16-32
MIC Escherichia coli [5]: 8-16
MIC Staphylococcus epidermidis [6]: 8-16
MIC Pseudomonas aeruginosa [7]: 8-16

GERLKRKIQKWIRW-NH2 [SRP-26]
Staphylococcus aureus ATP (viability, relative value to negative control) [1]: 12.9
Escherichia coli ATP (viability, relative value to negative control) [2]: 9.0
Pseudomonas aeruginosa ATP (viability, relative value to negative control) [3]: 6.2
MIC Staphylococcus aureus [4]: 16
MIC Escherichia coli [5]: 16-32
MIC Staphylococcus epidermidis [6]: 16-32
MIC Pseudomonas aeruginosa [7]: 16

RLKRLGERLKRKIQKL-NH2 [SRP-36]
Staphylococcus aureus ATP (viability, relative value to negative control) [1]: 3.6
Escherichia coli ATP (viability, relative value to negative control) [2]: 6.4
Pseudomonas aeruginosa ATP (viability, relative value to negative control) [3]: 2.0
MIC Staphylococcus aureus [4]: 16-32
MIC Escherichia coli [5]: 16-32
MIC Staphylococcus epidermidis [6]: 8
MIC Pseudomonas aeruginosa [7]: 8-16

LKRLGERLKRKIQKLIRL-NH2 [SRP-29]
Staphylococcus aureus ATP (viability, relative value to negative control) [1]: 1.9
Escherichia coli ATP (viability, relative value to negative control) [2]: 9.0
Pseudomonas aeruginosa ATP (viability, relative value to negative control) [3]: 1.8
MIC Staphylococcus aureus [4]: 16-32
MIC Escherichia coli [5]: 16-32
MIC Staphylococcus epidermidis [6]: 8
MIC Pseudomonas aeruginosa [7]: 8

C[C@@H]1[C@H](O)[C@@H](C)/C=C/C=C/C=C/C=C/C=C/C=C/C=C/[C@H](O[C@@H]2O[C@H](C)[C@@H](O)[C@H](N)[C@@H]2O)C[C@@H]2O[C@](O)(C[C@@H](O)C[C@@H](O)[C@H](O)CC[C@@H](O)C[C@@H](O)CC(=O)O[C@H]1C)C[C@H](O)[C@H]2C(=O)O [amphotericin B, reference compound]
MIC Candida krusei [8]: 2 mg/mL (≈ 2160 µM)
MIC Fusarium solani [9]: 1 mg/mL (≈ 1080 µM)
MIC Trichophyton rubrum [10]: 0.25 mg/mL (≈ 271 µM)
MIC Trichophyton mentagrophytes [11]: 0.125 mg/mL (≈ 135 µM)
MIC Alternaria alternata [12]: 1 mg/mL (≈ 1080 µM)

GRLKRVGERLKRKIQKWIRW-NH2 [SRP-23]
Staphylococcus aureus ATP (viability, relative value to negative control) [1]: 3.0
Escherichia coli ATP (viability, relative value to negative control) [2]: 2.8
Pseudomonas aeruginosa ATP (viability, relative value to negative control) [3]: 1.5
MIC Staphylococcus aureus [4]: 8-16
MIC Escherichia coli [5]: 16
MIC Staphylococcus epidermidis [6]: 8-16
MIC Pseudomonas aeruginosa [7]: 8-16

GRLKRLGKRLKRKIQKLARL-NH2 [SRP-32]
Staphylococcus aureus ATP (viability, relative value to negative control) [1]: 5.2
Escherichia coli ATP (viability, relative value to negative control) [2]: 7.0
Pseudomonas aeruginosa ATP (viability, relative value to negative control) [3]: 1.6
MIC Staphylococcus aureus [4]: 16
MIC Escherichia coli [5]: 16
MIC Staphylococcus epidermidis [6]: 4-8
MIC Pseudomonas aeruginosa [7]: 8-16

Ac-RLKRLGERLKRKIQKLIRL-NH2 [SRP-33]
Staphylococcus aureus ATP (viability, relative value to negative control) [1]: 1.6
Escherichia coli ATP (viability, relative value to negative control) [2]: 2.9
Pseudomonas aeruginosa ATP (viability, relative value to negative control) [3]: 2.8
MIC Staphylococcus aureus [4]: 16
MIC Escherichia coli [5]: 8-16
MIC Staphylococcus epidermidis [6]: 8-16
MIC Pseudomonas aeruginosa [7]: 8-16

GRLKRIGERLKRKIQKWIRW-NH2 [SRP-24]
Staphylococcus aureus ATP (viability, relative value to negative control) [1]: 2.7
Escherichia coli ATP (viability, relative value to negative control) [2]: 8.2
Pseudomonas aeruginosa ATP (viability, relative value to negative control) [3]: 1.3
MIC Staphylococcus aureus [4]: 16
MIC Escherichia coli [5]: 16
MIC Staphylococcus epidermidis [6]: 8-32
MIC Pseudomonas aeruginosa [7]: 8-16
